According to patent US5229409A, “6-substituted-tetrahydrobenz[cd]indoles” (Eli Lilly and Company, priority 1991, dated 1993):

How the values were obtained:
5-HT1A receptor = target: T1, 5-HT1A receptor (Rattus norvegicus, UniProt P19327); test: [3H]8-OH-DPAT binding to 5-HT1A sites in hippocampal membranes; design: species or system rat (male Sprague-Dawley); conditions: [3H]8-OH-DPAT 1.0 nM, pH 7.4, 37° C
T1 construct: the brains were rapidly chilled and dissected to obtain the hippocampi; from tissue; host or cells: hippocampi of male Sprague-Dawley rats (150-250 g), washed membranes
T1 sequence (P19327 1-422): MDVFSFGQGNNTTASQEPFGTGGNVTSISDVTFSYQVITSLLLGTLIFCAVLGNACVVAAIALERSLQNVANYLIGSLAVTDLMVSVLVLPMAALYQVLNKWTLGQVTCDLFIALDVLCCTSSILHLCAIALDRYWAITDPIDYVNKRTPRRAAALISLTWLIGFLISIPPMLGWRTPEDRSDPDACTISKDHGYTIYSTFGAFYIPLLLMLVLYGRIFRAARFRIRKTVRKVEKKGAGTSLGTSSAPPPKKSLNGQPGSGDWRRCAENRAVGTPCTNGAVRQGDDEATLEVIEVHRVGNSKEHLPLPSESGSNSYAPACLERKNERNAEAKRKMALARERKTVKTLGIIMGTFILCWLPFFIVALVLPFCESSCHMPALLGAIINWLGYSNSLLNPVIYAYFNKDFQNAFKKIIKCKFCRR
Method: The affinities of the compounds at the central […] described by Taylor, et al., (J. Pharmacol. Exp. Ther. 236:118-125, 1986). Membranes for the binding assay were prepared from male Sprague-Dawley rats (150-250 g). The animals were killed by decapitation, and the brains were rapidly chilled and dissected to obtain the hippocampi. The hippocampi were either prepared that day or stored frozen (-70° C.) until the day of preparation. Membranes were prepared by homogenizing the tissue in 40 volumes of ice-cold Tris-HCl buffer (50 mM, pH 7.4 at 22° C.) using a Techmar Tissumizer (setting 65 for 15 sec), and the homogenate was centrifuged at 39800 xg for 10 min. The resulting pellet then resuspended in the same buffer, and the centrifugation and resuspension process was repeated three additional times to wash the membranes. Between the second and third washes the resuspended membranes were incubated for 10 min at 37° C. to facilitate the removal of endogenous ligands. The final pellet was resuspended in 67 mM Tris-HCl, pH 7.4, to a concentration of 2 mg of tissue original wet weight/200 μl. This homogenate was stored frozen (-70° C.) until the day of the binding assay. […] The assay tubes were incubated for 10 min at 37° C, and the contents were then rapidly filtered through GF/B filters (pretreated with 0.5% polyethylenimine), followed by four one-mL washes with ice cold buffer. The radioactivity trapped by the filters was quantitated by liquid scintillation spectrometry, and specific [^3 H]8-OH-DPAT binding to the 5-HT1A sites was defined as the difference between [^3 H]8-OH-DPAT bound in the presence and absence of 10 μM 5-HT.
The affinity of the particular compound at the 5-HT1A receptor is expressed as IC50 value, i.e., the concentration required to inhibit 50% of the binding. The IC50 values were determined from 12-point competition curves using nonlinear regression (SYSTAT, SYSTAT, INC., Evanston, Ill.).

5-HT1D receptor = target: T2, 5-HT1D receptor (Bos taurus, UniProt F1MGM3); test: [3H]5-HT binding to 5-HT1D sites in caudate nuclei membranes; conditions: bovine caudate membranes, [3H]5-HT 1.7-1.9 nM, pH 7.4, 37° C
T2 construct: the caudate nuclei were dissected out and frozen at -70° C; tissue Pel-Freeze Biologicals; host or cells: bovine caudate nuclei, washed membranes
Method: The affinities of the compounds at the central 5-HT1D binding sites were determined using a modification of the binding assay described by Heuring and Peroutka (J. Neurosci. 7:894-903, 1987). Bovine brains were obtained from Pel-Freeze Biologicals, and the caudate nuclei were dissected out and frozen at -70° C. until the time that the membranes were prepared for the binding assays. At that time the tissues were homogenized in 40 volumes of ice-cold Tris-HCl buffer (50 mM, pH 7.4 at 22° C.) with a Techmar Tissumizer (setting 65 for 15 sec), and the homogenate was centrifuged at 39,800 g for 10 min. The resulting pellet was then resuspended in the same buffer, and the centrifugation and resuspension process was repeated three additional times to wash the membranes. Between the second and third washes the resuspended membranes were incubated for 10 min at 37° C. to facilitate the removal of endogenous 5-HT. the final pellet was resuspended in Tris buffer to a concentration of 25 mg of original tissue wet weight/ml for use in the binding assay. […] The assay tubes were incubated for 10 min at 37° C., and the contents were then rapidly filtered through GF/B filters (pretreated with 0.5% polyethylenimine), followed by four one-mL washes with ice-cold buffer. The radioactivity trapped by the filters was quantitated by liquid scintillation spectrometry, and specific [^3 H]5-HT binding to the 5HT1D sites were defined as the difference between [^3 H]5-HT bound in the presence and absence of 10 μM 5-HT.
The affinities of compounds at the 5-HT1D receptor are expressed as IC50 values, i.e., the concentration required to inhibit 50% of the binding. These values were determined from 12-point competition curves using nonlinear regression (SYSTAT, SYSTAT, Inc. Evanston, Ill.).

serotonin = test: whole brain serotonin concentration in vivo in rats; design: species or system rat (male albino); conditions: 1 hour, series 0.03-3 mg/kg
Method: (§1) In another experiment certain compounds of the Examples were evaluated to determine ability to affect the 5-hydroxyindoles serotonin and 5-hydroxyindole acetic acid (5HIAA), and serum corticosterone, in vivo. Male albino rats were injected subcutaneously with an aqueous solution of the compound. The pH of the solution was adjusted as necessary to solubilize the compound. A control of the solution without the test compound was similarly injected into a control animal. The rats were decapitated one hour later. Trunk blood was collected and allowed to clot. After centrifugation, serum was stored frozen prior to analysis. The whole brain was removed and frozen on dry ice for storage prior to analysis. The serum corticosterone concentration was measured spectrofluorometrically using the procedure of Solem and Brinck-Johnson, "An Evaluation of a Method for Determination of Free Corticosteroids in Minute Quantities of Mouse Plasma", Scand. J. Clin. Lab. Invest., Suppl. 80, p. 1-14 (1965), incorporated herein by reference. 5-Hydroxyindoleacetic acid (5HIAA) concentration in whole brain was measured by liquid chromatography with electrochemical detection as reported by Fuller and Perry, "Effects of Buspirone and its Metabolite, 1-(2-pyrimidinyl)piperazine, on Brain Monoamines and Their Metabolites in Rats", J. Pharmacol. Exp. Ther., 248, p. 50-56 (1989), incorporated herein by reference.

[1] = system: 5-hydroxyindole acetic acid (5HIAA); test: whole brain 5-hydroxyindoleacetic acid (5HIAA) concentration in vivo in rats; design: species or system rat (male albino); conditions: 1 hour, series 0.03-3 mg/kg
Method: as §1, with “The rats were decapitated one hour later.” left out

serum corticosterone = serum corticosterone concentration in vivo in rats; design: species or system rat (male albino); conditions: 1 hour, series 0.03-3 mg/kg
Method: as §1

T2 sequence (F1MGM3 1-403): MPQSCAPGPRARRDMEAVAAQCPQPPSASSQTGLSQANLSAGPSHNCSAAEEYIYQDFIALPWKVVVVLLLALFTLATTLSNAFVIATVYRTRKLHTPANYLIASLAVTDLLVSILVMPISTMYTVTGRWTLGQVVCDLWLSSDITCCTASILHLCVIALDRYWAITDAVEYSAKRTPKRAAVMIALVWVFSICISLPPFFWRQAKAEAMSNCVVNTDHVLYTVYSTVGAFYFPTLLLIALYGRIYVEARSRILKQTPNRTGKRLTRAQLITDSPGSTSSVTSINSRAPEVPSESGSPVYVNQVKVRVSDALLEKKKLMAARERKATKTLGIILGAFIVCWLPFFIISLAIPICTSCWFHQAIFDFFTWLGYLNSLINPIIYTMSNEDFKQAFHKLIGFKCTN

SMILES	IC50 (5-HT1A receptor)	IC50 (5-HT1D receptor)	Serotonin (serotonin; 0.03 mg/kg s.c.)	Serotonin (serotonin; 0.3 mg/kg s.c.)	Serotonin (serotonin; 3 mg/kg s.c.)	5HIAA ([1]; 0.03 mg/kg s.c.)	5HIAA ([1]; 0.3 mg/kg s.c.)	5HIAA ([1]; 3 mg/kg s.c.)	Serum Corticosterone (serum corticosterone; 0.03 mg/kg s.c.)	Serum Corticosterone (serum corticosterone; 0.3 mg/kg s.c.)	Serum Corticosterone (serum corticosterone; 3 mg/kg s.c.)
CCCN(CCC)C1Cc2c[nH]c3ccc(C(=O)C(C)(C)C)c(c23)C1 (racemic) [Example 1, (±)-6-(2,2-Dimethylpropanoyl)-4-(di-n-propylamino)-1,3,4,5-tetrahydrobenz[cd]indole]	0.5 nM	2.01 nM	3.15 ± 0.13 nmol/g	3.45 ± 0.10 nmol/g	3.38 ± 0.08 nmol/g	1.58 ± 0.05 nmol/g	1.31 ± 0.03 nmol/g	1.23 ± 0.04 nmol/g	8.2 ± 3.2 microg./100 ml	36.0 ± 4.8 microg./100 ml	44.2 ± 1.5 microg./100 ml
CCCN(CCC)[C@H]1Cc2c[nH]c3ccc(C(=O)c4ccccc4)c(c23)C1 [Example 10, (4R)-(+)-6-benzoyl-4-(di-n-propylamino)-1,3,4,5-tetrahydrobenz[cd]indole]	0.22 nM	1.81 nM	–	–	–	–	–	–	–	–	–
